From paper PMC9655119, “Sustained Activation of CLR/RAMP Receptors by Gel-Forming Agonists” (International Journal of Molecular Sciences, 2022)

Tests used:
[1] = molecular target: T1, human CLR/RAMP1 (Homo sapiens, UniProt O60894+Q16602); test: CLR/RAMP1 receptor-activation assay (DiscoverX cAMP Hunter, HitHunter cAMP XS+); assay type: cell-based
T1 construct: host or cells: 1321N1 cells (cAMP Hunter cell line)
Description: (§1) The bioactivity of peptide analogs was studied using CLR/RAMP1, CLR/RAMP2, and CLR/RAMP3 assays by DiscoveRx (Fremont, CA, USA) in cells that stably express human CLR/RAMP1 (1321N1 cells), CLR/RAMP2 (CHO-K1 cells), or CLR/RAMP3 (CHO-K1 cells). The dose-dependent stimulatory effect of agonists was studied in duplicate, at 10 different concentrations. Determination of the half-maximal effective concentration (EC50) was performed using a 10-point dose-response curves. The starting concentration was 1.0 μM, and it was serially diluted 3-fold, in DMSO.
Cells were seeded in a total volume of 20 μL into 384-well microplates, and the activity was determined using the DiscoverX HitHunter cAMP XS + assay. Before the assay, media was aspirated from cells and replaced with 15 μL 2:1 HBSS/10 mM Hepes: cAMP XS + Ab reagent. Intermediate dilution of samples was performed to generate 4X sample in assay buffer, and 5 μL of the 4X sample was added to cells and incubated at 37°C. Vehicle concentration was 1%.
The chemiluminescent signal was read with a PerkinElmer instrument.

[2] = molecular target: T2, human CLR/RAMP2 (Homo sapiens, UniProt O60895+Q16602); test: CLR/RAMP2 receptor-activation assay (PathHunter β-Arrestin); assay type: cell-based
T2 construct: host or cells: CHO-K1 cells (PathHunter β-Arrestin cell line)
Description: as §1
In this assay, the CLR was fused in frame with a small enzyme donor fragment ProLink™ (PK). The receptor was co-expressed with a fusion protein of β-arrestin and an N-terminal deletion mutant of β-galactosidase (i.e., enzyme acceptor). Activation of the CLR/RAMP2 receptor stimulated the binding of β-arrestin to the PK-tagged receptor and led to an increase in enzyme activities which can then be measured with the PathHunter detection reagents. PathHunter cell lines were seeded in a total volume of 20 μL into 384-well microplates and incubated at 37 °C prior to the assay. Intermediate dilution of samples was performed to generate 5X samples in the assay buffer. A 5 μL aliquot of 5X sample was added to cells and incubated at 37 °C for 90 min. Vehicle concentration was 1%.

[3] = Passage of peptide molecules through Centricon filters; assay type: physicochemical
Description: To evaluate whether gel formation reduces the movement of peptide molecules in solution, we used the Centricon® filters (Millipore) to separate samples and the carriers based on their molecular mass. The sample is monomeric peptide, and the carrier is the self-assembled gel. […] Ten minutes later, the solution was diluted to the 0.1% level, and aliquots of the samples were dispensed into separate Centricon columns (30,000 MW cutoff). The monomeric peptides and gel molecules were separated by centrifugation for 15 min (2000× g). The level of peptide in the elutes was determined by specific EIAs (Phoenix Pharmaceuticals Inc., Burlingame, CA, USA).

[4] = Release of Analog C-6 from the gel solution in vivo (single-dose pharmacokinetics); design: species or system Sprague–Dawley rats; details: plasma
Description: Single-dose pharmacokinetics of the Analog C-6 gel solution was investigated in male Sprague–Dawley rats. Rats received a gel solution via the subcutaneous route, and blood samples were collected at pre-dose, 8 h, 1, 2, 4, and 8 days via a catheter that had been cannulated to the jugular vein. Plasma was obtained by centrifugation, and the peptide level in samples was determined by specific ADM EIA (Phoenix Pharmaceuticals Inc.).

[5] = Microrheology viscosity assay (Rheosense viscometer); assay type: physicochemical; details: 5% peptide solution in 5% glucose
Description: We initially determined the gel-forming capability of peptides qualitatively based on a visual examination of the gel solution using a tube-tapping method. Once we have a rough estimate of the gel-forming capability, we quantitatively determine the viscosity of select peptides using a Rheosense viscometer (Rheosense Inc.; http://www.rheosense.com, accessed on 1 December 2019). In the visual assay, aliquots of peptides were dissolved in an aqueous solution (i.e., de-ionized water, saline, or 5% glucose solution). The peptide that dissolves instantly and stays as a clear solution without obvious macroscopic change in viscosity at 20 min after mixing was considered soluble. If macroscopic particles of peptides remained in the solution for 20 min after mixing, the peptide was considered insoluble. […] In addition, we quantitatively determined the viscosity of Analog C-6 and control peptides using a viscometer. The Rheosense microrheology viscometer uses a “chip” flow channel to quantify the viscosity of a solution as small as 50 μL. After loading the aqueous solution, the sample was injected through the flow channel with multiple pressure sensors, and the rheological properties were determined based on the standard principles of rheometry.

T1 sequence (Q16602 23-461): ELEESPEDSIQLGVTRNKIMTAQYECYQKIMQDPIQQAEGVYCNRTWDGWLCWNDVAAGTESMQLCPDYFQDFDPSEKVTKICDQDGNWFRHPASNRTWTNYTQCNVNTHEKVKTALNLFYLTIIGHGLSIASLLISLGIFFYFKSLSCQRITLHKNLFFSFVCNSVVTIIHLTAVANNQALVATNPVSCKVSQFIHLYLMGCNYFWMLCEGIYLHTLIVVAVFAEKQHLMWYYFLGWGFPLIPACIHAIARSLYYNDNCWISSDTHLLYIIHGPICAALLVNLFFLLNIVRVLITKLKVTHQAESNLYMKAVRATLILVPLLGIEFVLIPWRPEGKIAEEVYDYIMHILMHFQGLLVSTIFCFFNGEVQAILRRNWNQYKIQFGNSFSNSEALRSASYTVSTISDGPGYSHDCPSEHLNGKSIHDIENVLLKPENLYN
T1 sequence (O60894 27-148): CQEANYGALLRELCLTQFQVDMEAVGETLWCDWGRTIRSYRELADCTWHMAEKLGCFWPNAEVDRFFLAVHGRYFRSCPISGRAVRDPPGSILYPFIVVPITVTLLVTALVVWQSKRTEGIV
T2 sequence (Q16602 23-461): as the sequence (Q16602 23-461) above
T2 sequence (O60895 43-175): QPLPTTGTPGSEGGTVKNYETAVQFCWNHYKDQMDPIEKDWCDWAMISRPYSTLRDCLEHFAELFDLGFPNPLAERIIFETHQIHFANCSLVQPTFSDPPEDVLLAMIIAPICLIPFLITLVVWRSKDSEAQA

| Compound | EC50 ([1]; 1321N1 cells stably expressing human CLR/RAMP1, cAMP read-out, 10-point dose-response in duplicate, start 1.0 μM, 3-fold serial dilution in DMSO) | Emax ([1]; percentage of positive control β-CGRP, read-out: CLR/RAMP1 Max Activity) | EC50 ([2]; CHO-K1 cells stably expressing human CLR/RAMP2, β-arrestin recruitment, 90 min at 37 °C, 10-point dose-response in duplicate, start 1.0 μM, 3-fold dilution in DMSO) | Emax ([2]; […], percentage of positive control ADM1-52, read-out: CLR/RAMP2 Max Activity) | solubility in saline solution ([3]; 0.1% peptide in saline) | time during which circulating level was significantly increased ([4]; male Sprague–Dawley rats, s.c., 32 mg in 16% gel solution, ADM EIA, n = 3) | Tmax ([4]; male, Sprague-Dawley, rat, sc, 32 mg, read-out: time of peak circulating peptide level) | viscosity compared with water [5] | peptide level in Centricon elute, 5% and 20% solution groups versus 0.1% solution ([3]; Centricon 30,000 MW cutoff, 2000× g 15 min, 5% glucose, samples diluted to 0.1% after 10 min, CGRP or ADM EIA, triplicate) |
| --- | --- | --- | --- | --- | --- | --- | --- | --- | --- |
| CCCCCCCCCCCCCCCC(=O)NCCCC[C@H](N)C(=O)NCC(=O)N[C@H]1CSSC[C@@H](C(=O)N[C@H](C(=O)N[C@H](C(=O)N[C@@H](CCC(N)=O)C(=O)N[C@@H](CCCCN)C(=O)N[C@@H](CC(C)C)C(=O)N[C@@H](C)C(=O)N[C@@H](Cc2c[nH]cn2)C(=O)N[C@@H](CCC(N)=O)C(=O)N[C@H](C(=O)N[C@@H](Cc2ccc(O)cc2)C(=O)N[C@@H](CCC(N)=O)C(=O)N[C@@H](Cc2ccccc2)C(=O)N[C@H](C(=O)N[C@@H](CC(=O)O)C(=O)N[C@@H](CCCCN)C(=O)N[C@@H](CC(=O)O)C(=O)N[C@@H](CCCCN)C(=O)N[C@@H](CC(=O)O)C(=O)N[C@@H](CC(N)=O)C(=O)N[C@H](C(=O)N[C@@H](C)C(=O)N2CCC[C@H]2C(=O)N[C@@H](CCCNC(=N)N)C(=O)N[C@@H](CO)C(=O)N[C@@H](CCCCN)C(=O)N[C@H](C(=O)N[C@@H](CO)C(=O)N2CCC[C@H]2C(=O)N[C@@H](CCC(N)=O)C(=O)NCC(=O)N[C@@H](Cc2ccc(O)cc2)C(N)=O)[C@@H](C)CC)C(C)C)[C@@H](C)O)[C@@H](C)CC)C(C)C)[C@@H](C)O)NC(=O)[C@H]([C@@H](C)O)NC(=O)CNC(=O)[C@H](Cc2ccccc2)NC(=O)[C@H](CCCNC(=N)N)NC1=O [Analog C-6] | 24 nM | 78% | 2.8 nM | 87% | low solubility | 8 to 48 h | 8 h | – | – |
| adrenomedullin [ADM, reference compound] | – | – | – | – | – | – | – | significantly higher than that of water | lower than that of the 0.1% solution group |
